In publication PMC4852132 (Biochemistry, 2016):
Values joined by “and” are separate entries in the source; they are usually repeats but may differ in a detail not shown here. Identical values can stand only once. Like-named read-outs stand apart in the source and are kept apart here.

What was measured:
E1p-h [1] = target: T1, E1p-h (Homo sapiens, UniProt P08559+P11177); test: MS reductive acetylation of the E2p-h lipoyl domain; type: biochemical; conditions: E1p-h with cofactor and pyruvate
T1 sequence (P08559 30-390): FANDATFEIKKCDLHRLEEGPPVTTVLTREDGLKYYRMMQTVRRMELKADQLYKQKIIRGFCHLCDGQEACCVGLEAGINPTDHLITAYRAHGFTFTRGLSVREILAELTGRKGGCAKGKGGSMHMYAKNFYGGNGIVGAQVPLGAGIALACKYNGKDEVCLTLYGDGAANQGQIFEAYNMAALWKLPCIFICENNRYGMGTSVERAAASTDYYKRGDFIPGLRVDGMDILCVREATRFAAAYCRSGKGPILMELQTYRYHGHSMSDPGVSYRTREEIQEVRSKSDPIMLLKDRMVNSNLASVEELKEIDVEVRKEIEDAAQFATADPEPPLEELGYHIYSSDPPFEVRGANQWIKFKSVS
T1 sequence (P11177 31-359): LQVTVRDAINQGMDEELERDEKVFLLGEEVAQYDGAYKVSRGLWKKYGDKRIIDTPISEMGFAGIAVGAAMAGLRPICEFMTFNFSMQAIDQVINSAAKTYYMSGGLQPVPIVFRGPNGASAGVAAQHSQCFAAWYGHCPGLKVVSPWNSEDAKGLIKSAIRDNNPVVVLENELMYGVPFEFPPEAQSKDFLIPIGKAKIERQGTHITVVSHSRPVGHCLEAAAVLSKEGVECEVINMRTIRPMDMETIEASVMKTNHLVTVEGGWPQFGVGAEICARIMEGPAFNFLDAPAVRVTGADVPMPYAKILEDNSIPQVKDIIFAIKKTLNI

E1p-ec [2] = target: T2, E1p-ec (Escherichia coli, UniProt P0AFG8)
E1p-h [3] = target: T1, E1p-h; test: E1p-h specific activity by rate of reduction of DCPIP; type: biochemical; conditions: for E1p-h specific activity, percent of that with ThDP: cofactor 0.2 or 0.5 mM
E1p-ec [4] = target: T2, E1p-ec; conditions: cofactor 0.2 mM
OGDHc-h = target: T3, OGDHc-h (Homo sapiens, UniProt Q02218); test: Overall OGDHc-h activity by formation of NADH; type: biochemical
T3 sequence (Q02218 41-1023): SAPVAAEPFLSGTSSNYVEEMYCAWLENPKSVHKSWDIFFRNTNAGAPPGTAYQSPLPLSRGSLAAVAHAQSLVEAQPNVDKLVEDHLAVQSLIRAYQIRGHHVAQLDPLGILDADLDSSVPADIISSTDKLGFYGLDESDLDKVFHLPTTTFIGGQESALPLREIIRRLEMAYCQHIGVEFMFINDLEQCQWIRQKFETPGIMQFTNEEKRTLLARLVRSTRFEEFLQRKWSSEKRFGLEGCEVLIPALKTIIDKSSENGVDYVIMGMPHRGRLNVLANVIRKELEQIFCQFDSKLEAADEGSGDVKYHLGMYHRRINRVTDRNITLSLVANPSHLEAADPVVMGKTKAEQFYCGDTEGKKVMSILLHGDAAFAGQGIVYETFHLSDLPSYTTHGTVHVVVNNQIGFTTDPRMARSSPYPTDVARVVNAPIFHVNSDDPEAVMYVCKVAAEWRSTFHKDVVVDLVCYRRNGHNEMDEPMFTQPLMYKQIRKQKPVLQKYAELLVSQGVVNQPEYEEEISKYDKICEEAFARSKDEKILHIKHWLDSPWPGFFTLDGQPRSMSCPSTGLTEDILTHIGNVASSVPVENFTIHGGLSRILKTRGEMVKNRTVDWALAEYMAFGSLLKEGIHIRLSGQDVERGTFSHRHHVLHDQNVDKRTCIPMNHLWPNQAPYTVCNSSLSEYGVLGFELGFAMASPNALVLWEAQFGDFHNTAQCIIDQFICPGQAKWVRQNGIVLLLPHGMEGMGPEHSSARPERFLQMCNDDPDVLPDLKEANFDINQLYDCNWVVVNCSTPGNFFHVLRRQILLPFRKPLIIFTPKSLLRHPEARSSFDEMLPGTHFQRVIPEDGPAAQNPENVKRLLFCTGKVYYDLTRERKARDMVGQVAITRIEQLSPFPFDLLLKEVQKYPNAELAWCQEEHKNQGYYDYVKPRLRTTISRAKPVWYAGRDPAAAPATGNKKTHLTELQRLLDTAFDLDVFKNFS
T3 sequence (P36957 68-453 partner): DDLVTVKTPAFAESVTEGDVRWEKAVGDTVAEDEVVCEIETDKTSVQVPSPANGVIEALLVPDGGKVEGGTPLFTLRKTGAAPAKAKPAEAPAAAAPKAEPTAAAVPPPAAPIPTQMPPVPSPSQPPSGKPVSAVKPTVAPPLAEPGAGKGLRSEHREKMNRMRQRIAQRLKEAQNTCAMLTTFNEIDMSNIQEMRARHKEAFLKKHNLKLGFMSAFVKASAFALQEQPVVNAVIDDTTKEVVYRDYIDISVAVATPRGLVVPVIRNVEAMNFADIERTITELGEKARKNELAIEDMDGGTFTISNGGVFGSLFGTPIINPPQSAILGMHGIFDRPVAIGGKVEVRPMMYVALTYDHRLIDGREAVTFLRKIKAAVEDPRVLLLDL
T3 sequence (P09622 36-509 partner): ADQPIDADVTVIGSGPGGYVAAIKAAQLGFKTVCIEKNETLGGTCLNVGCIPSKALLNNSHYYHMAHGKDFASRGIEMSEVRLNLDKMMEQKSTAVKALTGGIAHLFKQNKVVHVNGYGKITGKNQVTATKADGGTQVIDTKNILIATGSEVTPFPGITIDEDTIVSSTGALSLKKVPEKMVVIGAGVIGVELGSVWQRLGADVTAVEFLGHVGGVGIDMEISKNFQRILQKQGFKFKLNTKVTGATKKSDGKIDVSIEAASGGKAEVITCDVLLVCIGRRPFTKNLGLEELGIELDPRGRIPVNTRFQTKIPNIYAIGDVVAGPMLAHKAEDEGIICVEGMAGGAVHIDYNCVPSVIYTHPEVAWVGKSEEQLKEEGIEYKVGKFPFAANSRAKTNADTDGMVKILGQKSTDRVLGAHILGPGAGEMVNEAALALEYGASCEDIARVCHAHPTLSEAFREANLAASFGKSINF

DXPS [5] = target: T4, DXPS (Escherichia coli, UniProt P77488); conditions: apo-DXPS with 0.15 mM cofactor, 5 °C, 15 h
E1p-h [6] = target: T1, E1p-h; test: Quenching of intrinsic fluorescence of E1p-h; type: binding
DXPS [7] = target: T4, DXPS
OGDHc-ec = OGDHc-ec (Escherichia coli, UniProt P0AFG3); test: Overall OGDHc-ec activity by formation of NADH; type: biochemical

Structure (SMILES) | rate of reductive acetylation of LD1-h (E1p-h [1]) [s⁻¹] | percent of the E1p-ec fluorescence quenched (E1p-ec [2]) [%] | E1p-h specific activity (E1p-h [3]; cofactor 0.2 and 0.5 mM, E1p-h alone, model reaction) | E1p-h specific activity, percent of that with ThDP (E1p-h [3]) [%] | E1p-ec specific activity, percent of that with ThDP (E1p-ec [4]) [%] | overall OGDHc activity, percent of that with ThDP (OGDHc-h) [%] | formation of (R)-acetolactate from pyruvate (DXPS [5]) | percent of E1p-h fluorescence quenched (E1p-h [6]) [%] | Kd (E1p-h [6]; read-out: Kd from quenching of E1p-h fluorescence) [µM] | percent of quenching of the fluorescence of apo-DXPS (DXPS [7]) [%] | Kd (DXPS [7]; read-out: Kd from quenching of the intrinsic fluorescence of DXPS, apo-DXPS, pH 8.0, 25 °C) [µM] | overall OGDHc activity, percent of that with ThDP (OGDHc-ec; listed as MeOThP) | E1p-ec specific activity (E1p-ec [4]; E1p-ec alone, model reaction) | Kd (E1p-h [6]) [µM] | overall OGDHc activity, percent of that with ThDP (OGDHc-ec) [%]
COc1ncc(C[n+]2csc(CCOP(=O)(O)OP(=O)(O)O)c2C)c(N)n1 [MeOThDP, 2′-methoxythiamin diphosphate] | 6.38 | 5.8 | 0.017 ± 0.01 µmol min^−1 (mg of E1p-h)^−1 | ~49 | ~19 | 64 | not the case | 4 | 16.2 ± 4.5 | 27 | 6.24 ± 0.23 | 42% and 69% |  |  | 
Cc1ncc(C[n+]2csc(CCOP(=O)([O-])OP(=O)(O)O)c2C)c(N)n1 [ThDP, thiamin diphosphate] | 10.25 | 9.9 |  | 100 | 100 | 100 | formation of (R)-acetolactate | 19 |  | 35 |  |  | 0.36 ± 0.01 µmol min^−1 (mg of E1p-ec)^−1 | 7.2 ± 0.5 | 100
